Measurements: paper PMC10803289, “Transport and inhibition mechanism of the human SGLT2–MAP17 glucose transporter” (Nature Structural & Molecular Biology, 2023)
Where “and” joins values, the source holds several entries; their conditions need not be identical. Equal values may be shown once.

How the values were obtained:
[1] = test system: nontransfected Expi293 cells (Mock); assay: Nonspecific binding to crude membrane of nontransfected cells (Mock); set-up: species or system human; details: 30 nM canagliflozin; Mock membrane
Method: To examine the inhibition of binding to the crude membrane, mammalian Expi293 cells were co-transfected with the hMAP17 and hSGLT2 plasmids, as described. The cells were collected and disrupted by sonication in a hypotonic buffer (50 mM HEPES–NaOH (pH 7.5), 10 mM KCl and protease inhibitor cocktail) or Na^+-free hypotonic buffer (50 mM Tris–HCl (pH 7.5), 10 mM KCl and protease inhibitor cocktail). The cell debris were removed by centrifugation (2,000g, 5 min, 4 °C). The membrane fraction was collected by ultracentrifugation (112,000g, 30 min, 4 °C) and stored at −80 °C before use. The crude membrane (250 μg per sample) was incubated with SGLT2 inhibitor in an assay buffer (100 mM NaCl and 10 mM HEPES/Tris, pH 7.4) or Na^+-free assay buffer (100 mM choline chloride and 10 mM HEPES/Tris, pH 7.4) at room temperature for 2 h. Reactions were terminated by filtration through a GF/C filter plate (Corning) presoaked in assay buffer containing 0.1% bovine serum albumin. The sample in the filter plate was washed three times with the assay buffer and eluted with acetonitrile: water (80:20, v/v). The extract solution from the filter plate was diluted with water containing candesartan as an internal standard, and the SGLT2 inhibitor concentration was quantified via LC–MS/MS.
Nonspecific binding was measured using the crude membrane of nontransfected Expi293 cells. Specific binding was calculated by subtracting nonspecific binding from the binding of hSGLT2-expressing cells. Specific binding was normalized to hSGLT2 protein expression levels, measured via FSEC. The equilibrium dissociation constant (Kd) and maximum number of binding sites (Bmax) were calculated via nonlinear regression in GraphPad Prism 8.4.3. The specific binding of the hSGLT2 mutants was normalized to the Bmax of WT hSGLT2.
The concentrations of the extract solution from the filter plate and of the cell lysate were quantified using a tandem mass spectrometry QTRAP6500 System (SCIEX) coupled with an ACQUITY UPLC system (Waters) using the internal standard method. Mobile phases A and B used 10 mM of ammonium bicarbonate and acetonitrile, respectively.

[2] = test system: SGLT2; set-up: method as in literature; details: referee comment in peer review file; ref literature; cited from earlier work
[3] = target: T1, hSGLT2 D201A (Homo sapiens, UniProt P31639, D201A); assay: α-MG uptake in HEK293 cells, D201A mutant; type: cell-based; set-up: expressed in transfected cells
T1 sequence (P31639 1-672 D201A): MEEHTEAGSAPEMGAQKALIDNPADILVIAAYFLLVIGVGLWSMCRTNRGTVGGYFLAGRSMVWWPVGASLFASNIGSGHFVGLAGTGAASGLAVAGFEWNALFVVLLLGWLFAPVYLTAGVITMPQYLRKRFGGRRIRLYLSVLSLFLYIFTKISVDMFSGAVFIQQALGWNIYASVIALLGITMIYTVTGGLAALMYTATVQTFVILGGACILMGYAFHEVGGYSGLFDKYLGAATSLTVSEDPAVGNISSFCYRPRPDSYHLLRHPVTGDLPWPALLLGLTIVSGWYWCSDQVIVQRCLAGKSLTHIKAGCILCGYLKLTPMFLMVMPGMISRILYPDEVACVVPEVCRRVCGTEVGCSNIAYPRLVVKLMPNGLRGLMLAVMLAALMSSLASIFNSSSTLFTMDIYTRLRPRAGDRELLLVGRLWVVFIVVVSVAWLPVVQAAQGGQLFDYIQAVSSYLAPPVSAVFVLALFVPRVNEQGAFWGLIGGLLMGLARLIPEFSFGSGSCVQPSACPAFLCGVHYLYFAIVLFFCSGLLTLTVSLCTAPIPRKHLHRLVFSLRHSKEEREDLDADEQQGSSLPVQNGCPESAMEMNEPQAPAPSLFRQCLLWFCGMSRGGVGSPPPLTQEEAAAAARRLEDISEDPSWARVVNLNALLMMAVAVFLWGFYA
T1 sequence (Q13113 1-114 partner): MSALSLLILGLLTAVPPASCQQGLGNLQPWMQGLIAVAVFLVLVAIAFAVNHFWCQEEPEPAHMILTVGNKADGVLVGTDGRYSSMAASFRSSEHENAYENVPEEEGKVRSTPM
Description: hSGLT2 complementary DNA and human MAP17 cDNA were synthesized and codon-optimized for expression in human cell lines. Both cDNAs were cloned into the pcDNA3.4 vector. The hSGLT2 sequence was fused with an N-terminal signal sequence from human trypsinogen 1, a His10 tag, and sfGFP, followed by a human rhinovirus 3C protease (HRV3C protease) recognition site. Point mutations were introduced into this construct using site-directed mutagenesis. These plasmids were utilized for all experimental procedures conducted in this study. […]
Cell lysates were deproteinized by adding acetonitrile containing candesartan as the internal standard. The α-MG concentration was quantified via liquid chromatography–tandem mass spectrometry (LC–MS/MS) using the internal standard method.
Cellular protein content was determined using a bicinchoninic acid protein assay kit (Thermo Fisher Scientific). The uptake of α-MG was expressed as the ratio of concentration in the cells (in pmol per mg protein) to concentration in the medium (in pmol μl^−1); this is known as the cell-to-medium ratio (in μl per mg protein).
In the inhibition study, the cell-to-medium ratio of cells transfected with the empty vector was used as the background. The specific α-MG uptake was calculated by subtracting this background from the total cell-to-medium ratio and normalized to the uptake achieved without the inhibitor. […]

| SMILES | Canagliflozin binding (% of hSGLT2) [1] | IC50 [2] [nM] | uptake of α-MG (in words) ([3]; D201A mutant) | α-MG uptake ([3]; Fig. 3h, D201A) |
| --- | --- | --- | --- | --- |
| Cc1ccc([C@@H]2O[C@H](CO)[C@@H](O)[C@H](O)[C@H]2O)cc1Cc1ccc(-c2ccc(F)cc2)s1 [Canagliflozin] | 2.562 % of hSGLT2 and 2.489 % of hSGLT2 and 1.993 % of hSGLT2 | ~2.7 | – | – |
| CO[C@H]1O[C@H](CO)[C@@H](O)[C@H](O)[C@H]1O [α-MG, α-methyl-D-glucopyranoside] | – | – | No clear uptake | 6.25 μL/mg-protein and 10.67 μL/mg-protein and 6.52 μL/mg-protein |
